{"source": "patent US6787653B2", "about": "“Preparation process of biphenylcarboxylic acid amide derivatives” (Kowa Co., Ltd., priority 2002, dated 2004)", "note": "Where a name gives a salt, the structure may show the parent alone."}
{"test_system": "not given", "assay": "not given", "conditions": "not given"}
{"smiles": "COc1cc(-c2ccc(C(=O)N3CCN(CCCN4CCN(C(=O)c5ccc(-c6cc(OC)c(C(C)=O)c(OC)c6)cc5)CC4)CC3)cc2)cc(OC)c1C(C)=O", "note": "(as salt: hydrochloride) [Example 5, 1,3-Bis[4-[4-(4-acetyl-3,5-dimethoxyphenyl)benzoyl]-1-piperazinyl]propane Dihydrochloride]", "melting point": "240 °C (dec.)"}
{"smiles": "CCCOc1c(OC)cc(-c2ccc(C(=O)N3CCN(CCCN4CCN(C(=O)c5ccc(-c6cc(OC)c(OCCC)c(OC)c6)cc5)CC4)CC3)cc2)cc1OC", "note": "(as salt: hydrochloride) [Example 6, 1,3-Bis[4-[4-(3,5-dimethoxy-4-propoxyphenyl)benzoyl]-1-piperazinyl]propane Dihydrochloride]", "melting point": "266 °C (dec.)"}
{"smiles": "COc1cc(-c2ccc(C(=O)N3CCN(CCCN4CCN(C(=O)c5ccc(-c6cc(OC)c(OC(C)C)c(OC)c6)cc5)CC4)CC3)cc2)cc(OC)c1OC(C)C", "note": "(as salt: methanesulfonate) [Example 2, 1,3-Bis [4-[4-(4-isopropoxy-3,5-dimethoxyphenyl)benzoyl]-1-piperazinyl]propane Dimethanesulfonate]", "melting point": "235.5 °C (dec.)"}
{"smiles": "CCOc1c(OC)cc(-c2ccc(C(=O)N3CCN(CCCN4CCN(C(=O)c5ccc(-c6cc(OC)c(OCC)c(OC)c6)cc5)CC4)CC3)cc2)cc1OC", "note": "(as salt: methanesulfonate) [Example 4, 1,3-Bis[4-[4-(4-ethoxy-3,5-dimethoxyphenyl)benzoyl]-1-piperazinyl]propane Dimethanesulfonate]", "melting point": "245 °C (dec.)"}
{"test_system": "IgE antibody production by B cells", "assay": "Evaluation of inhibitory activity against IgE antibody production", "type": "cell-based", "conditions": "B-cell; mouse (Balb/C) spleen B cells cultured with LPS and mouse IL-4; IgE in culture supernatant by ELISA", "experimental": "After the spleen was enucleated from a mouse (Balb/C, male, aged 8 weeks) and shredded in 0.3 wt. % BSA/HBSS, single cells were obtained using a 200-mesh screen. The single cells were then hemolyzed by a 0.75 wt. % ammonium chloride·17 mmol/L Tris solution and a splenocyte suspension (1×10^7/mL) was prepared using RPMI 1640 medium/25 mmol/L HEPES/0.3 wt. % BSA. After the suspension was reacted with a rat anti-mouse Thy-1,2 monoclonal antibody (product of Cedarlane Co.) at 4° C. for 1 hour, the reaction mixture was centrifuged and the sediment cells were suspended again (1×10^7/mL, RPMI/HEPES/BSA). After the suspension-was reacted with a low-cytotoxic rabbit complement (product of Cedarlane Co.) at 37° C. for 1 hour, killed cells were removed by specific gravity centrifugation using lympholyte M (product of Cedarlane Co.) to obtain a B cell fraction as viable cells.\nAfter culturing B cells ([…]) for one day together with LPS (E. coli 026:B6, product of DIFCO Co.) on a 96-well plate, mouse IL-4 (product of Genzyme Co.) was added. The mixture was cultured for further 7 days. Each test compound was added on the first day of the culture. After culturing, the amount of IgE antibody in a culture supernatant was assayed by ELISA, and the inhibitory activity of the test compound against production of an IgE antibody was calculated.", "units": {"IC50": "nM"}}
{"smiles": "COc1cc(-c2ccc(C(=O)N3CCN(CCCN4CCN(C(=O)c5ccc(-c6cc(OC)c(OC)c(OC)c6)cc5)CC4)CC3)cc2)cc(OC)c1OC", "note": "[Example 1, 1,3-Bis[4-[4-(3,4,5-trimethoxyphenyl)benzoyl]-1-piperazinyl]propane Dihydrochloride]", "IC50": 100}
{"smiles": "COc1cc(-c2ccc(C(=O)N3CCN(CCCN4CCN(C(=O)c5ccc(-c6cc(OC)c(OC(C)C)c(OC)c6)cc5)CC4)CC3)cc2)cc(OC)c1OC(C)C", "note": "[Example 2, 1,3-Bis [4-[4-(4-isopropoxy-3,5-dimethoxyphenyl)benzoyl]-1-piperazinyl]propane Dimethanesulfonate]", "IC50": 200}
{"smiles": "COc1cc(-c2ccc(C(=O)N3CCN(CCCN4CCN(C(=O)c5ccc(-c6cc(OC)c(SC)c(OC)c6)cc5)CC4)CC3)cc2)cc(OC)c1SC", "note": "[Example 3, 1,3-Bis[4-[4-(3,5-dimethoxy-4-methylthiophenyl)benzoyl]-1-piperazinyl]propane Dihydrochloride]", "IC50": 80}
{"smiles": "CCOc1c(OC)cc(-c2ccc(C(=O)N3CCN(CCCN4CCN(C(=O)c5ccc(-c6cc(OC)c(OCC)c(OC)c6)cc5)CC4)CC3)cc2)cc1OC", "note": "[Example 4, 1,3-Bis[4-[4-(4-ethoxy-3,5-dimethoxyphenyl)benzoyl]-1-piperazinyl]propane Dimethanesulfonate]", "IC50": 400}
{"smiles": "COc1cc(-c2ccc(C(=O)N3CCN(CCCN4CCN(C(=O)c5ccc(-c6cc(OC)c(C(C)=O)c(OC)c6)cc5)CC4)CC3)cc2)cc(OC)c1C(C)=O", "note": "[Example 5, 1,3-Bis[4-[4-(4-acetyl-3,5-dimethoxyphenyl)benzoyl]-1-piperazinyl]propane Dihydrochloride]", "IC50": 600}
{"smiles": "CCCOc1c(OC)cc(-c2ccc(C(=O)N3CCN(CCCN4CCN(C(=O)c5ccc(-c6cc(OC)c(OCCC)c(OC)c6)cc5)CC4)CC3)cc2)cc1OC", "note": "[Example 6, 1,3-Bis[4-[4-(3,5-dimethoxy-4-propoxyphenyl)benzoyl]-1-piperazinyl]propane Dihydrochloride]", "IC50": 300}
